The text below walks through data of PubChem BioAssay (NCI).

Where “and” joins values, the source holds several entries; their conditions need not be identical. Equal entries are not always repeated.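 Each compound was tested at five concentrations against cells in 96-well plates for 48 hours. GI50 is the concentration that inhibits growth by half. TGI marks complete inhibition of growth.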

Among the test systems are HT29 colon; SK-MEL-5 melanoma; SN12C renal; MOLT-4 leukemia; NCI-H522 lung; OVCAR-8 ovarian; M14 melanoma; IGROV1 ovarian; TK-10 renal; DU-145 prostate.
Holding throughout (test): growth of human tumour cells (NCI), 48 h

For `Oc1ccccc1/C=N\NC(=S)Nc1ccc(F)cc1`, the GI50 is 4.49 µM with HT29 colon; 1.15 µM with SK-MEL-5 melanoma; 2.37 µM with SN12C renal; 0.586 µM in the assay with MOLT-4 leukemia; 2.16 µM in the assay with NCI-H522 lung; 1.22 µM in the assay with OVCAR-8 ovarian. The GI50 is 1.01 µM with M14 melanoma, 1.31 µM in the assay on IGROV1 ovarian, 6.83 µM in the assay with TK-10 renal and 1.97 µM in the assay on DU-145 prostate. Further, the TGI with HT29 colon was 25 µM; in the assay on SK-MEL-5 melanoma it was 7.15 µM; with SN12C renal, above 93.7 µM; in the assay on MOLT-4 leukemia, above 31.1 µM; with NCI-H522 lung it was above 49.4 µM; with OVCAR-8 ovarian, above 63.1 µM. Also, the TGI with M14 melanoma is 3.57 µM; in the assay with IGROV1 ovarian it was 17.7 µM; in the assay on TK-10 renal, above 100 µM; in the assay on DU-145 prostate, above 100 µM.
As to `CN1CCN(Cc2ccc(NC(=O)c3cncc(C#Cc4c(N)ncc5ccccc45)c3)cc2C(F)(F)F)CC1`, the GI50 in the assay with HT29 colon is 0.18 µM; with SK-MEL-5 melanoma, 0.719 µM; in the assay with SN12C renal it was 0.627 µM; in the assay on MOLT-4 leukemia it was 0.276 µM; with NCI-H522 lung, 0.681 µM; with OVCAR-8 ovarian, 0.839 µM. Moreover, the GI50 was 0.203 µM in the assay on M14 melanoma, 0.373 µM in the assay on IGROV1 ovarian, 0.919 µM in the assay with TK-10 renal and 0.716 µM in the assay on DU-145 prostate. The TGI in the assay with HT29 colon came to 1.04 µM; with SK-MEL-5 melanoma, 1.38 µM; with SN12C renal, 1.31 µM; in the assay on MOLT-4 leukemia, 1.37 µM; in the assay on NCI-H522 lung, 1.53 µM; in the assay with OVCAR-8 ovarian it was 1.91 µM. The TGI in the assay on M14 melanoma was 0.885 µM; with IGROV1 ovarian, 1.2 µM; with TK-10 renal, 1.66 µM; in the assay with DU-145 prostate, 1.39 µM.
For `COc1cc2c3c(c4cc(OC)c(OC)cc4c2cc1OC)CN1CCC[C@H]1C3`, the GI50 with HT29 colon is 0.034 µM and < 0.01 µM; in the assay on SK-MEL-5 melanoma it was 0.0607 µM and < 0.01 µM; in the assay on SN12C renal, 0.0429 µM and < 0.0105 µM; with MOLT-4 leukemia, 0.0382 µM and < 0.01 µM; in the assay on OVCAR-8 ovarian, 0.0381 µM and < 0.0103 µM; in the assay with M14 melanoma, 0.0502 µM and < 0.0142 µM. Besides, the GI50 with IGROV1 ovarian is 0.0433 µM and < 0.01 µM; with DU-145 prostate, 0.0205 µM. For the same molecule, the TGI in the assay with HT29 colon was 1.14 µM; in the assay on SN12C renal, 1.3 µM and 0.374 µM; with MOLT-4 leukemia it was above 34.9 µM; in the assay on NCI-H522 lung, 1.01 µM and 0.54 µM; in the assay on OVCAR-8 ovarian, above 34 µM; in the assay on M14 melanoma it was 2.15 µM and 1.21 µM. Moreover, the TGI in the assay on IGROV1 ovarian is 1.45 µM and 1.42 µM; with TK-10 renal, 0.103 µM and 0.497 µM; with DU-145 prostate it was 0.187 µM.
As to `Cc1cnc(C(=O)Nc2nc3ccc(S(=O)(=O)Nc4ccc(C(C)(C)C)cc4)cc3[nH]2)cn1`, the GI50 in the assay on HT29 colon was 0.388 µM; with SK-MEL-5 melanoma, 0.33 µM; in the assay on SN12C renal, 0.592 µM; with MOLT-4 leukemia, 0.562 µM; with NCI-H522 lung, 0.356 µM; in the assay with OVCAR-8 ovarian, 1.26 µM. For the same molecule, the GI50 with M14 melanoma was 0.384 µM; with IGROV1 ovarian, 0.776 µM; with TK-10 renal, 2.53 µM; in the assay with DU-145 prostate, 0.525 µM. Also, the TGI in the assay on HT29 colon amounted to 4.23 µM; in the assay with SK-MEL-5 melanoma, 7.09 µM; with SN12C renal, 13.3 µM; in the assay on MOLT-4 leukemia, 5.9 µM; in the assay on NCI-H522 lung, 8.9 µM; in the assay on OVCAR-8 ovarian, 17.2 µM. For the same molecule, the TGI in the assay with M14 melanoma was determined as 4.43 µM; in the assay on IGROV1 ovarian, 12.3 µM; in the assay with TK-10 renal it was 15.2 µM; with DU-145 prostate it was 4.51 µM.
With `CSc1ccc(-c2cn3ccsc3n2)cc1`, the GI50 in the assay with HT29 colon is 33.3 µM; in the assay on SK-MEL-5 melanoma, 14.3 µM; with SN12C renal, 32.2 µM; with MOLT-4 leukemia it was 5.48 µM; with NCI-H522 lung, 11.1 µM; in the assay on OVCAR-8 ovarian, 15.8 µM. In addition, the GI50 in the assay with M14 melanoma was 18.1 µM; with IGROV1 ovarian it was 5.73 µM; in the assay on TK-10 renal, 18 µM; in the assay on DU-145 prostate, 9.07 µM. Also, the TGI is above 100 µM with HT29 colon; 98.1 µM in the assay on SK-MEL-5 melanoma; above 100 µM in the assay with SN12C renal; above 100 µM in the assay on MOLT-4 leukemia; above 89.5 µM in the assay with NCI-H522 lung; above 100 µM in the assay on OVCAR-8 ovarian. Further, the TGI in the assay on M14 melanoma is above 100 µM; in the assay with IGROV1 ovarian it was above 75.5 µM; in the assay with TK-10 renal, above 84.7 µM; in the assay with DU-145 prostate, above 100 µM.
For `COc1cc(C(=O)/C=C/c2c[nH]c3ccccc23)cc(OC)c1OC`, the GI50 was below 0.0146 µM in the assay on HT29 colon; below 0.0173 µM in the assay on SK-MEL-5 melanoma; 0.0631 µM in the assay on SN12C renal; 0.0473 µM in the assay with MOLT-4 leukemia; below 0.0107 µM in the assay on NCI-H522 lung; 0.037 µM with OVCAR-8 ovarian. The GI50 is below 0.0155 µM with M14 melanoma, 0.0713 µM with IGROV1 ovarian, 0.188 µM in the assay with TK-10 renal and 0.0296 µM in the assay on DU-145 prostate. In addition, the TGI was 0.343 µM with HT29 colon; 0.775 µM in the assay on SK-MEL-5 melanoma; 18.9 µM with SN12C renal; 15.6 µM with MOLT-4 leukemia; 0.0391 µM with NCI-H522 lung; 15.6 µM in the assay on OVCAR-8 ovarian. Moreover, the TGI in the assay on M14 melanoma turned out to be 39.4 µM; with IGROV1 ovarian it was 25.3 µM; in the assay with TK-10 renal, 9.56 µM; in the assay with DU-145 prostate, 30 µM.
Turning to `CNC(=O)c1sc(-n2cnc3cc(OC)c(OC)cc32)cc1OCc1ccccc1C(F)(F)F`, the GI50 is above 25 µM in the assay on HT29 colon; above 25 µM in the assay on SK-MEL-5 melanoma; above 25 µM in the assay with SN12C renal; above 23.6 µM in the assay with MOLT-4 leukemia; above 25 µM in the assay on NCI-H522 lung; above 19.2 µM in the assay with OVCAR-8 ovarian. For the same molecule, the GI50 in the assay with M14 melanoma, in the assay on IGROV1 ovarian, in the assay on TK-10 renal and in the assay with DU-145 prostate was above 25 µM throughout. The TGI in the assay on HT29 colon, in the assay on SK-MEL-5 melanoma, in the assay with SN12C renal, in the assay on MOLT-4 leukemia, in the assay with NCI-H522 lung and in the assay on OVCAR-8 ovarian was above 25 µM in each case. The TGI with M14 melanoma, in the assay on IGROV1 ovarian, in the assay on TK-10 renal and in the assay on DU-145 prostate was above 25 µM in each case.
Turning to `COC(=O)c1sc(-n2cnc3cc(OC)c(OC)cc32)cc1OCc1ccccc1C(F)(F)F`, the GI50 is above 25 µM with HT29 colon; above 25 µM in the assay on SK-MEL-5 melanoma; above 25 µM in the assay with SN12C renal; above 25 µM in the assay with MOLT-4 leukemia; 17.7 µM in the assay on NCI-H522 lung; 15.3 µM in the assay with OVCAR-8 ovarian. Moreover, the GI50 is above 25 µM with M14 melanoma, above 25 µM with IGROV1 ovarian, 11 µM in the assay with TK-10 renal and above 25 µM in the assay on DU-145 prostate. Moreover, the TGI in the assay with HT29 colon, in the assay on SK-MEL-5 melanoma, with SN12C renal, with MOLT-4 leukemia, with NCI-H522 lung and in the assay with OVCAR-8 ovarian was above 25 µM throughout. Also, the TGI in the assay on M14 melanoma, in the assay with IGROV1 ovarian, in the assay on TK-10 renal and with DU-145 prostate was above 25 µM throughout.
With `O=C(O)CN(CCN(CC(=O)O)CC(=O)O)CC(=O)O.[Cu+2].[Na+]`, the GI50 with HT29 colon, in the assay on SK-MEL-5 melanoma, in the assay on SN12C renal, in the assay on MOLT-4 leukemia, with NCI-H522 lung and with OVCAR-8 ovarian was above 100 µM in each case. Moreover, the GI50 in the assay on M14 melanoma, in the assay with IGROV1 ovarian, in the assay with TK-10 renal and with DU-145 prostate was above 100 µM in each case. Also, the TGI in the assay with HT29 colon, with SK-MEL-5 melanoma, in the assay with SN12C renal, with MOLT-4 leukemia, in the assay on NCI-H522 lung and with OVCAR-8 ovarian was above 100 µM each time. Besides, the TGI with M14 melanoma, in the assay on IGROV1 ovarian, in the assay with TK-10 renal and with DU-145 prostate was above 100 µM throughout.
For the molecule `CCOC(=O)Nc1cc2c(c(N)n1)N=C(c1ccc(Cl)cc1Cl)CN2`, the TGI in the assay with HT29 colon was 0.641 µM; in the assay with SK-MEL-5 melanoma, 0.999 µM; with SN12C renal, 28.8 µM; with MOLT-4 leukemia, above 100 µM; in the assay with NCI-H522 lung, 1.08 µM; in the assay on OVCAR-8 ovarian it was 37.2 µM. The TGI turned out to be 43.4 µM with M14 melanoma, 34.3 µM in the assay on IGROV1 ovarian, 35.4 µM in the assay with TK-10 renal and 13.3 µM with DU-145 prostate.
As for `COc1oc(C2C/C(=C/C(C)=C/C(C)=C/C(C)=C/c3ccc([N+](=O)[O-])cc3)CO2)c(C)c(=O)c1C` (configuration not stated), the TGI with HT29 colon is above 50 µM; in the assay with SK-MEL-5 melanoma, 3.61 µM; in the assay on SN12C renal it was 27 µM; in the assay on MOLT-4 leukemia it was 10.2 µM; in the assay with NCI-H522 lung it was 15.5 µM; with OVCAR-8 ovarian, 32.5 µM. Moreover, the TGI in the assay with M14 melanoma is above 100 µM; with IGROV1 ovarian, 42.5 µM; in the assay on TK-10 renal, above 45.6 µM; in the assay with DU-145 prostate, above 47.3 µM.
As for `C=C1C(C)C2C(Cc3ccccc3)NC(=O)C23C(OC(C)=O)C=CC(C)(O)C(=O)C(C)C/C=C/C3C1O` (configuration not stated), the GI50 with HT29 colon is 0.0505 µM and 0.176 µM and 0.0663 µM; in the assay on SK-MEL-5 melanoma it was 2.17 µM; in the assay with SN12C renal, 14.9 µM; in the assay on MOLT-4 leukemia, 17.9 µM; in the assay with OVCAR-8 ovarian, above 471 µM; in the assay on M14 melanoma it was 3.18 µM. The GI50 in the assay with IGROV1 ovarian is 0.79 µM; with TK-10 renal, 0.732 µM; in the assay on DU-145 prostate it was 19.1 µM. For the same molecule, the TGI is above 278 µM in the assay with HT29 colon; 499 µM in the assay on SN12C renal; 78.3 µM and > 500 µM in the assay on MOLT-4 leukemia; 27.3 µM and 36.4 µM in the assay on NCI-H522 lung; above 500 µM in the assay with OVCAR-8 ovarian; above 500 µM in the assay on DU-145 prostate.
